Target: T1, Human AMPK α2β2γ1 (Homo sapiens, UniProt O43741+P54646)
T1 construct: The full length cDNAs of human AMPK β2 (NM_005399.3) and human AMPK α2 (NM_006252.3); The full length cDNAs of human AMPK β2 (NM_005399.3); the full length cDNA of human AMPK γ1 (NM_002733.3) had been inserted into pET28b(+); 6xHis (N); made in house; host or cells: Escherichia coli BL21 CodonPlus (DE3)-RTL (AMPK); BL21 Star (DE3) (CaMKKβ)
Assay: Test Example 2: evaluation of an activator for AMP-activated protein kinase (AMPK), human AMPK α2β2γ1 phosphorylated with CaMKK2, FL-Peptide 7 mobility shift
Assay type: biochemical
Conditions: for EC150 (compound concentration showing 150% relative to the control (100%)): human AMPK α2β2γ1, 0.2 mM ATP final, 25° C., 2 hours; for Emax / Emax (maximum rate of increase in activity within the measurement range): human AMPK α2β2γ1, relative to control (100%); for Emax: read-out: Emax (maximum rate of increase in activity within the measurement range)
Protocol: The full length cDNAs of human AMPK β2 (NM_005399.3) and human AMPK α2 (NM_006252.3) were inserted into the MCS1 and MCS2 of the pETDuet-1 vector to prepare a human AMPK β2 and human AMPK α2 (6× His tag at the 5′ terminus) expressing plasmid. The plasmid was cotransfected with an expression plasmid, in which the full length cDNA of human AMPK γ1 (NM_002733.3) had been inserted into pET28b(+), into BL21 CodonPlus (DE3)-RTL to obtain an expression strain. The expression strain was cultured in TB medium, followed by induction with 0.5 mM IPTG, and cultured at 25° C. for 3 hours and then harvested.
An expression vector, in which the full length cDNA of human CAMKK β (NM_172226.1) had been inserted into pGEX-6P-3, was transfected into BL21 Star (DE3). The expression strain was cultured in TB medium, followed by induction with 0.5 mM IPTG, and cultured at 25° C. for 3 hours and then harvested.
Thus, phosphorylation treatment was carried out as pretreatment.
Human AMPK α2β2γ1 in an amount to give a conversion rate of approximately 10% by reaction for 2 hours, and CaMKK2 in an amount capable of sufficiently imparting activity to AMPK for one hour were mixed in a buffer solution consisting of a 50 mM HEPES-NaOH buffer solution (pH 7.0), 100 mM NaCl, 5 mM magnesium chloride, 0.1% bovine serum albumin, 0.2 mM sodium orthovanadate(V), 1 mM ethylene glycol-bis(2-aminoethyl ether)-N,N,N′,N′-tetraacetic acid (EGTA), 5 mM disodium β-glycerophosphate, 1 mM dithiothreitol and 0.2 mM ATP, and the obtained liquid was left to stand at 25° C. for 1 to 1.5 hours to sufficiently phosphorylate AMPK.
The obtained liquid was left to stand for 10 minutes.
The obtained liquid was allowed to react at 25° C. for 2 hours, and 10 μl of 20 mM EDTA was then added thereto to stop the reaction.
To detect phosphorylated fluorescent substrates, the reaction liquid was applied to a measuring device, LabChip EZ Reader II manufactured by Caliper Life Science, Inc., for detecting fluorescence by using differences in mobility due to differences in charge. The setting conditions for the device were pressure, −1.5 PSI; upstream voltage, −2250 V; downstream voltage, −400 V; post sample buffer sip time, 40 seconds; final delay, 120 seconds; and peak order, Product First.
A conversion rate was calculated from the peak heights of the resulting substrate and product. The conversion rate when not containing a compound was used as a control, and a concentration dependent curve was made by plotting the rate of increase in activity to the control at each concentration of a compound.

T1 sequence (P54646 whole entry): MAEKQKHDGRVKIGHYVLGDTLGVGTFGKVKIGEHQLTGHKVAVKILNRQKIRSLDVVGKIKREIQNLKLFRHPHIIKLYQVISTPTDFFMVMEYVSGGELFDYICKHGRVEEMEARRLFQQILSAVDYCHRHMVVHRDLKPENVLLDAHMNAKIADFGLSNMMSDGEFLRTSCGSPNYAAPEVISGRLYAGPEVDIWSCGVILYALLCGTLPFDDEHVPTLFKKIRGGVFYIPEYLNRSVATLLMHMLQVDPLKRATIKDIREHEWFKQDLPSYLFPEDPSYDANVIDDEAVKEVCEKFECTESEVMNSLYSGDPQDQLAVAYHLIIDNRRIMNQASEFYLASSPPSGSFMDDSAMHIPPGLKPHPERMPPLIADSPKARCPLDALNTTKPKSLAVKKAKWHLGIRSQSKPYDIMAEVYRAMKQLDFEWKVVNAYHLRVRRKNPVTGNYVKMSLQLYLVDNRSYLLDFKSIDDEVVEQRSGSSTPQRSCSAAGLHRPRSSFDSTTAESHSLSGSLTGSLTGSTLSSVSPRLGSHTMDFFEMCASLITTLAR
T1 sequence (O43741 whole entry): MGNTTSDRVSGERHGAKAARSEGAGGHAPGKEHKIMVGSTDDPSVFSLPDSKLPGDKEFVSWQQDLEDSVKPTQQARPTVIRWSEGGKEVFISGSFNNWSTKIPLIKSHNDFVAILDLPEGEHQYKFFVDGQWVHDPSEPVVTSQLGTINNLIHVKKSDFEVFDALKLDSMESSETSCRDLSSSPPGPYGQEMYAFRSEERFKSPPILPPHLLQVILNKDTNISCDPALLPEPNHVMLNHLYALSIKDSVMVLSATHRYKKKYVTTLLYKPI
T1 sequence (P54619 whole entry partner): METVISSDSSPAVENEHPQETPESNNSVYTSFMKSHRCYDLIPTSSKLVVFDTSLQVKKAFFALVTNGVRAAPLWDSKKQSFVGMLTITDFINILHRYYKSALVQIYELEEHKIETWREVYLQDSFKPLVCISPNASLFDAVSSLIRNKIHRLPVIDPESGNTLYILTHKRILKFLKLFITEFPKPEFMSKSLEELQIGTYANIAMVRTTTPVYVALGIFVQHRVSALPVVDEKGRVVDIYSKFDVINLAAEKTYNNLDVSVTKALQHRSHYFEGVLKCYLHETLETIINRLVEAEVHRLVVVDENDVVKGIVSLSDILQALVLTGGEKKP

Structure (SMILES) | EC150 (compound concentration showing 150% relative to the control (100%)) [nM] | Emax [%] | Emax (maximum rate of increase in activity within the measurement range) [%]
COc1cc(C2=CCOCC2)ccc1-c1nc2cc(O[C@@H]3CO[C@H]4[C@@H]3OC[C@H]4O)[nH]c2cc1F [Compound I-3-41] | 31 | 500 | 
O[C@@H]1CO[C@H]2[C@@H]1OC[C@H]2Oc1[nH]c2cc(Cl)c(-c3ccc(N4CCOCC4)cc3)nc2c1F [Compound I-2-8] | 8.9 |  | 447
COc1nc(N2CCCC2)ccc1-c1nc2cc(O[C@@H]3CO[C@H]4[C@@H]3OC[C@H]4O)[nH]c2cc1F [Compound I-3-27] | 12 | 633 | 
N#Cc1cc2[nH]c(O[C@@H]3CO[C@H]4[C@@H]3OC[C@H]4O)cc2nc1-c1ccc(C2=CCOCC2)cc1 [Compound I-2-19] | 1.6 | 916 | 
Cn1ncc2cc(-c3nc4cc(O[C@@H]5CO[C@H]6[C@@H]5OC[C@H]6O)[nH]c4cc3F)ccc21 [Compound I-2-69] | 58 | 521 | 
O[C@@H]1CO[C@H]2[C@@H]1OC[C@H]2Oc1cc2nc(-c3ccc(C4CCCCO4)cc3)c(F)cc2[nH]1 (stereo partly drawn) [Compound I-2-57] | 10 | 484 | 
CN=S(C)(=O)c1ccc(-c2ccc(-c3nc4cc(O[C@@H]5CO[C@H]6[C@@H]5OC[C@H]6O)[nH]c4cc3F)cc2)cc1 (stereo partly drawn) [Compound I-4-1] | 1.4 | 496 | 
CN=S(C)(=O)c1ccc(-c2ccc(-c3nc4cc(O[C@@H]5CO[C@H]6[C@@H]5OC[C@H]6O)[nH]c4cc3F)cc2)cc1 (stereo partly drawn) [Compound I-4-36] | 2.3 | 510 | 
O[C@@H]1CO[C@H]2[C@@H]1OC[C@H]2Oc1[nH]c2cc(Cl)c(-c3ccc(C4(O)CCC4)cc3)nc2c1Cl [Compound I-1-62] | 5.7 | 851 | 
O=C(O)C1CC=C(c2ccc(-c3nc4c(Cl)c(O[C@@H]5CO[C@H](CO)C5)[nH]c4cc3Cl)cc2)CC1 (stereo partly drawn) [Compound I-1-55] | 54 | 689 | 
O[C@@H]1CO[C@H]2[C@@H]1OC[C@H]2Oc1cc2nc(-c3ccc([C@@H]4C[C@@H](O)[C@@H](O)CO4)cc3)c(Cl)cc2[nH]1 [Compound I-2-61-a] | 6.4 | 442 | 
CC(C)(C(=O)O)[C@H]1CC[C@H](Oc2cc3nc(-c4ccc(N5CC[C@@H](O)C5)cc4)c(Cl)cc3[nH]2)CC1 [Compound I-1-43] | 98 | 302 | 
OC[C@@H]1C[C@H](Oc2cc3nc(-c4c(F)cc(N5CCOCC5)cc4F)c(Cl)cc3[nH]2)CO1 [Compound I-1-18] | 22 | 776 | 
COC(=O)Nc1ccc(-c2ccc(-c3nc4cc(O[C@@H]5CO[C@H]6[C@@H]5OC[C@H]6O)[nH]c4cc3F)cc2)cc1 [Compound I-4-35] | 10 | 447 | 
CN=S(C)(=O)c1ccc(-c2ccc(-c3nc4cc(O[C@@H]5CO[C@H]6[C@@H]5OC[C@H]6O)[nH]c4cc3F)cc2)cc1 (stereo partly drawn) [Compound I-4-37] | 1.5 |  | 502
O[C@@H]1CO[C@H]2[C@@H]1OC[C@H]2Oc1[nH]c2cc(Cl)c(-c3ccc(N4CCOCC4)cc3)nc2c1Br [Compound I-2-9] | 66 |  | 395
CS(=O)(=O)Nc1ccc(-c2ccc(-c3nc4cc(O[C@@H]5CO[C@H]6[C@@H]5OC[C@H]6O)[nH]c4cc3F)cc2)nc1 [Compound I-4-56] | 5.8 | 396 | 

Structure (SMILES) | EC150 (compound concentration showing 150% relative to the control (100%)) [nM] | Emax [%] | Emax (maximum rate of increase in activity within the measurement range) [%]
CC(C)(C(=O)O)[C@H]1CC[C@H](Oc2cc3nc(-c4c(F)cc(N5CCOCC5)cc4F)c(Cl)cc3[nH]2)CC1 [Compound I-1-16] | 810 | 204 | 
N#Cc1c(O[C@@H]2CO[C@H]3[C@@H]2OC[C@H]3O)[nH]c2cc(Cl)c(OCc3c(F)cccc3F)nc12 [Compound I-1-1] | 330 | 660 | 
O[C@@H]1CO[C@H]2[C@@H]1OC[C@H]2Oc1cc2nc(-c3ccc(N4CCOCC4)cc3)c(Cl)c(F)c2[nH]1 [Compound I-2-3] | 6.9 | 508 | 
CS(=O)(=O)c1ccc(-c2ccc(-c3nc4cc(O[C@@H]5CO[C@H]6[C@@H]5OC[C@H]6O)[nH]c4cc3F)cc2)nc1 [Compound I-4-41] | 1.4 | 441 | 
O[C@@H]1CO[C@H]2[C@@H]1OC[C@H]2Oc1cc2nc(-c3ccsc3)c(F)cc2[nH]1 [Compound I-3-24] | 340 | 315 | 
CS(C)(=O)=NC1CC=C(c2ccc(-c3nc4cc(O[C@@H]5CO[C@H]6[C@@H]5OC[C@H]6O)[nH]c4cc3F)cc2)CC1 (stereo partly drawn) [Compound I-4-17] | 2.9 | 511 | 
CNS(=O)(=O)c1ccc(-c2ccc(-c3nc4cc(O[C@@H]5CO[C@H]6[C@@H]5OC[C@H]6O)[nH]c4cc3F)cc2)cc1 [Compound I-4-39] | 1.9 | 479 | 
Cn1c(-c2nc3cc(O[C@@H]4CO[C@H]5[C@@H]4OC[C@H]5O)[nH]c3cc2F)cc2ccccc21 [Compound I-2-70] | 38 | 511 | 
N#Cc1c(O[C@@H]2CO[C@H]3[C@@H]2OC[C@H]3O)[nH]c2cc(Cl)c(-c3ccc(-c4cnn(CCO)c4)cc3)nc12 [Compound I-2-46] | 77 | 510 | 
C/C(=C\CNC(=O)CO)c1ccc(-c2nc3c(Cl)c(O[C@@H]4CO[C@H]5[C@@H]4OC[C@H]5O)[nH]c3cc2Cl)cc1 [Compound I-1-63] | 6.3 | 791 | 
CNS(=O)(=O)Nc1ccc(-c2ccc(-c3nc4cc(O[C@@H]5CO[C@H]6[C@@H]5OC[C@H]6O)[nH]c4cc3F)cc2)cc1 [Compound I-4-34] | 4 | 431 | 
O=C(CO)NCCCOc1ccc(-c2nc3cc(O[C@@H]4CO[C@H]5[C@@H]4OC[C@H]5O)[nH]c3cc2F)cc1 [Compound I-3-31] | 55 | 505 | 
CS(C)(=O)=Nc1ccc(-c2ccc(-c3nc4cc(O[C@@H]5CO[C@H]6[C@@H]5OC[C@H]6O)[nH]c4cc3F)cc2)nc1 [Compound I-3-12] | 4.2 | 396 | 
N#Cc1c(O[C@@H]2CO[C@H]3[C@@H]2OC[C@H]3O)[nH]c2cc(Cl)c(-c3ccc(-c4ccc(-n5cncn5)cc4)cc3)nc12 [Compound I-1-58] | 3.8 | 836 | 
O[C@@H]1CO[C@H]2[C@@H]1OC[C@H]2Oc1[nH]c2cc(C(F)(F)F)c(-c3ccc(N4CCOCC4)cc3)nc2c1F [Compound I-2-10] | 49 |  | 506
O[C@@H]1CO[C@H]2[C@@H]1OC[C@H]2Oc1cc2nc(-c3ccc(N4CCOCC4)cc3F)c(C(F)(F)F)cc2[nH]1 [Compound I-3-39] | 200 | 491 | 
